One data set concerns L6. The data set is described as follows: Cytotoxicity against rat L6 cells after 70 hrs by alamar blue assay. In kind it is cell-based. The settings on record: L6, 70 h. (Resazurin is reduced to fluorescent resorufin, in cell work by metabolically active cells.)
Data set [1] concerns Trypanosoma brucei rhodesiense. The data set is described as follows: Antitrypanosomal activity against bloodstream Trypanosoma brucei rhodesiense STIB 900 after 70 hrs by alamar blue assay. It is filed as functional, organism-based. The settings on record: STIB 900, 70 h.
A short description of data set [2]: Selectivity index, ratio of IC50 for rat L6 cells to IC50 for bloodstream Trypanosoma brucei rhodesiense STIB 900. In kind it is toxicity, cell-based. The settings on record: read-out: Ratio IC50.
In the next data set the test system is Mus musculus. The data set is described as follows: Toxicity in Trypanosoma brucei STIB795 infected in NMRI mouse African trypanosomiasis model assessed as overt signs of at 50 mg/kg, ip qd administered for 4 consecutive days from day 3 to 6 postinfection measured up to 30 days. The settings on record: in vivo, 720 h.
The test system of data set [3] is Trypanosoma brucei brucei. The data set is described as follows: Antitrypanosomal activity against Trypanosoma brucei brucei STIB 795 infected in NMRI mouse African trypanosomiasis model assessed as parasite free mouse survival at 50 mg/kg, ip qd administered for 4 consecutive days from day 3 to 6 postinfection measured up to 30 days.

Experimental findings from ChEMBL document CHEMBL1154763, “Antitrypanosomal activity of 1,2-dihydroquinolin-6-ols and their ester derivatives” (J Med Chem, 2010) are described below.

Calls of active or inactive are those of the source. The rule behind the calls is not given here.

By IC50 is commonly meant the concentration that inhibits the measured activity by half.

Turning to `COc1cc([C@@H]2c3cc4c(cc3[C@H](O)[C@H]3COC(=O)[C@H]23)OCO4)cc(OC)c1OC` [PODOFILOX], the IC50 in the data set on L6 stood at 0.012 µM.
With `CC1=CC(C)(C)N(Cc2ccccc2)c2ccc(OC(=O)c3ccccc3)cc21`, the figures for the IC50 (in data set [1]; in the data set on L6 (read-out: IC50)) were 0.013 µM and more than 240 µM, respectively. Besides, the selectivity ratio in data set [2] is more than 18000.
The matching figures for `CC1(C)C=Cc2cc(O)ccc2N1Cc1ccccc1`: 0.13 µM, 5.5 µM and 42.
The corresponding values for `CC1=CC(C)(C)N(Cc2cccc(C(F)(F)F)c2)c2ccc(OCc3cccc(C(F)(F)F)c3)cc21` are 3.6 µM, more than 180 µM and more than 50.
The matching figures for `COc1cc(OC)cc(C(=O)Oc2ccc3c(c2)C(C)=CC(C)(C)N3Cc2ccc(Cl)cc2)c1`: 0.048 µM, more than 190 µM and more than 3900.
With `CC1=CC(C)(C)N(Cc2ccncc2)c2ccc(O)cc21`, the IC50 is 0.34 µM in data set [1] and 13 µM in the data set with L6 (read-out: IC50). Besides, the selectivity ratio in data set [2] was found to be 39.
The corresponding values for `COc1cc(OC)cc(C(=O)Oc2ccc3c(c2)C(C)=CC(C)(C)N3Cc2ccccc2)c1` are 0.023 µM, 24 µM and 1000.
The corresponding values for `CC(=O)Oc1ccc2c(c1)C(C)=CC(C)(C)N2C` are 1.4 µM, 41 µM and 29.
Take `COc1cccc(COc2ccc3c(c2)C(C)=CC(C)(C)N3)c1`: the IC50 amounted to 11 µM in data set [1] and 61 µM in the data set on L6 (read-out: IC50). Further, in data set [2], the selectivity ratio is 5.
In the case of `CC1=CC(C)(C)Nc2ccc(OCc3ccccc3)cc21`, the figures for the IC50 (in data set [1]; in the data set on L6 (read-out: IC50)) were 4.1 µM and 56 µM, respectively. Moreover, the selectivity ratio in data set [2] turned out to be 14.
`CC(=O)Oc1ccc2c(c1)C(C)=CC(C)(C)N2Cc1ccc(F)cc1`: the half-maximal inhibitory concentration (IC50) in data set [1] amounted to 0.041 µM; in the data set on L6 (read-out: IC50) it was 29 µM. Besides, the Activity result with Mus musculus is “Non-toxic”. The Survival in data set [3] (route intraperitoneal) came out at 8.75 days. Moreover, in data set [2], the selectivity ratio worked out at 710.
Consider `COc1cccc(COc2ccc3c(c2)C(C)=CC(C)(C)N3Cc2cccc(OC)c2)c1`, for which the IC50 in data set [1] was 63 µM; in the data set on L6 (read-out: IC50), more than 210 µM. For the same compound, the selectivity ratio in data set [2] is more than 3.
As to `CC1=CC(C)(C)Nc2ccc(OCc3cccc(C(F)(F)F)c3)cc21`, the IC50 in data set [1] was found to be 8.8 µM; in the data set on L6 (read-out: IC50), 45 µM. The selectivity ratio in data set [2] stood at 5.
For the compound `COc1cc(OC)cc(C(=O)Oc2ccc3c(c2)C(C)=CC(C)(C)N3)c1`, the figures for the IC50 (in data set [1]; in the data set with L6 (read-out: IC50)) were 0.054 µM and 16 µM, respectively. Also, the Survival result in data set [3] is “inactive”. The selectivity ratio in data set [2] came to 300.
Turning to `CC1=CC(C)(C)N(Cc2ccccn2)c2ccc(O)cc21`, the IC50 amounted to 1.1 µM in data set [1] and 18 µM with L6 (read-out: IC50). In addition, in data set [2], the selectivity ratio amounted to 17.
The corresponding values for `COc1ccc(CN2c3ccc(OC(C)=O)cc3C(C)=CC2(C)C)cc1` are 0.048 µM, 15 µM and 310.
The matching figures for `CC(=O)Oc1ccc2c(c1)C(C)=CC(C)(C)N2Cc1ccc(C)cc1`: 0.39 µM, 21 µM and 54.
The corresponding values for `CC(=O)Oc1ccc2c(c1)C(C)=CC(C)(C)N2Cc1cccc(C(F)(F)F)c1` are 0.041 µM, 27 µM and 660.
Regarding `CC(=O)Oc1ccc2c(c1)C(C)=CC(C)(C)N2C(C)=O`, the IC50 in data set [1] turned out to be 5.3 µM; in the data set on L6 (read-out: IC50) it was 160 µM. Moreover, the selectivity ratio in data set [2] turned out to be 29.
Consider `COc1cccc(CN2c3ccc(OC(C)=O)cc3C(C)=CC2(C)C)c1`, for which the IC50 in data set [1] turned out to be 0.32 µM; in the data set with L6 (read-out: IC50), 29 µM. For the same compound, the selectivity ratio in data set [2] was found to be 91.
Turning to `CCCCCCCC(=O)Oc1ccc2c(c1)C(C)=CC(C)(C)N2Cc1ccccc1`, the results for the IC50 (in data set [1]; with L6 (read-out: IC50)) were 0.017 µM and 220 µM, respectively. The selectivity ratio in data set [2] was 13000.
With `CC(=O)Oc1ccc2c(c1)C(C)=CC(C)(C)N2Cc1cccc(Cl)c1`, the figures for the IC50 (in data set [1]; in the data set on L6 (read-out: IC50)) were 0.039 µM and 29 µM, respectively. Also, the selectivity ratio in data set [2] was found to be 740.
The matching figures for `COc1cc(OC)cc(C(=O)Oc2ccc3c(c2)C(C)=CC(C)(C)N3Cc2ccc(C)cc2)c1`: 0.033 µM, more than 200 µM and more than 6000.
As for `CC1=CC(C)(C)N(Cc2ccc(Cl)cc2)c2ccc(O)cc21`, the IC50 in data set [1] is 0.061 µM; in the data set on L6 (read-out: IC50), 7.9 µM. The selectivity ratio in data set [2] worked out at 130.
Consider `COc1ccc(CN2c3ccc(O)cc3C(C)=CC2(C)C)cc1`, for which the IC50 in data set [1] was found to be 0.17 µM; in the data set on L6 (read-out: IC50) it was 6.2 µM. In addition, the selectivity ratio in data set [2] was determined as 37.
For the compound `CC1=CC(C)(C)Nc2ccc(OC(=O)c3ccc4c(c3)OCO4)cc21`, the IC50 in data set [1] worked out at 0.3 µM; in the data set with L6 (read-out: IC50) it was 29 µM. In data set [2], the selectivity ratio came to 99.
The matching figures for `COc1ccccc1COc1ccc2c(c1)C(C)=CC(C)(C)N2`: 5.3 µM, 48 µM and 9.
The corresponding values for `COc1cc(CN2c3ccc(O)cc3C(C)=CC2(C)C)cc(OC)c1` are 0.14 µM, 11 µM and 83.
Regarding `CC1=CC(C)(C)N(Cc2ccccc2)c2ccc(OC(=O)C3CCCCC3)cc21`, the IC50 is 0.028 µM in data set [1] and more than 230 µM in the data set with L6 (read-out: IC50). Also, in data set [2], the selectivity ratio is more than 8200.
For the compound `CC1=CC(C)(C)N(Cc2ccccc2)c2ccc(O)cc21`, the IC50 in data set [1] worked out at 0.007 µM; in the data set on L6 (read-out: IC50), 6.8 µM. The selectivity ratio in data set [2] was 970.
The matching figures for `COc1ccc(COc2ccc3c(c2)C(C)=CC(C)(C)N3)cc1`: 5.2 µM, 77 µM and 15.
The corresponding values for `O=C(Oc1ccc2ncccc2c1)c1ccc2c(c1)OCO2` are 80 µM, 40 µM and 0.5.
`CC1=CC(C)(C)Nc2ccc(O)cc21`: the IC50 worked out at 0.78 µM in data set [1] and 18 µM in the data set on L6 (read-out: IC50). In data set [2], the selectivity ratio was found to be 23.
The matching figures for `CC1=CC(C)(C)N(Cc2ccccc2)c2ccc(OC(=O)C(C)(C)C)cc21`: 0.028 µM, 170 µM and 6000.
Take `CC(=O)Oc1ccc2c(c1)C(C)=CC(C)(C)N2Cc1ccc(Cl)cc1`: the IC50 in data set [1] is 0.18 µM; in the data set on L6 (read-out: IC50), 22 µM. The selectivity ratio in data set [2] was determined as 120.
The matching figures for `CC1=CC(C)(C)N(Cc2ccc(C)cc2)c2ccc(O)cc21`: 0.058 µM, 8.1 µM and 140.
The matching figures for `CC1=CC(C)(C)Nc2ccc(OC(=O)c3cccc(C(=O)Oc4ccc5c(c4)C(C)=CC(C)(C)N5)c3)cc21`: less than 0.008 µM, 63 µM and more than 7800.
The matching figures for `COc1cc(CN2c3ccc(OC(C)=O)cc3C(C)=CC2(C)C)cc(OC)c1`: 0.1 µM, 25 µM and 240.
In the case of `CC1=CC(C)(C)N(Cc2ccc(C(F)(F)F)cc2)c2ccc(OCc3ccc(C(F)(F)F)cc3)cc21`, the IC50 was 86 µM in data set [1] and more than 180 µM in the data set on L6 (read-out: IC50). Also, in data set [2], the selectivity ratio is more than 2.
The matching figures for `Nc1nc(N)nc(Nc2ccc([As]3SCC(CO)S3)cc2)n1` (centres undefined) [MELARSOPROL]: 0.008 µM, 7.9 µM and 1000.
As for `CC(=O)Oc1ccc2c(c1)C(C)=CC(C)(C)N2Cc1ccc(C#N)cc1`, the IC50 in data set [1] amounted to 0.26 µM; with L6 (read-out: IC50) it was 29 µM. The selectivity ratio in data set [2] was 110.
On to `CC(=O)Oc1ccc2c(c1)C(C)=CC(C)(C)N2Cc1ccc(Cl)c(Cl)c1`, for which the results for the IC50 (in data set [1]; with L6 (read-out: IC50)) were 0.053 µM and 28 µM, respectively. Besides, the selectivity ratio in data set [2] is 530.
The corresponding values for `CC1=CC(C)(C)N(Cc2ccccc2)c2ccc(OC(=O)Cc3ccccc3)cc21` are 0.015 µM, 160 µM and 11000.
The matching figures for `COc1cc(COc2ccc3c(c2)C(C)=CC(C)(C)N3)cc(OC)c1`: 13 µM, 68 µM and 5.
The matching figures for `COc1cc(CN2c3ccc(OC(C)=O)cc3C=CC2(C)C)cc(OC)c1`: 0.2 µM, 10 µM and 50.
For the compound `CC(=O)Oc1ccc2c(c1)C(C)=CC(C)(C)N2Cc1ccc(C(F)(F)F)cc1`, the IC50 in data set [1] turned out to be 0.36 µM; in the data set with L6 (read-out: IC50) it was 14 µM. The selectivity ratio in data set [2] is 39.
The matching figures for `CC1=CC(C)(C)Nc2ccc(OCc3ccc(C(F)(F)F)cc3)cc21`: 4.5 µM, 48 µM and 11.
Regarding `COc1cc(OC)cc(C(=O)Oc2ccc3ncccc3c2)c1`, the results for the IC50 (in data set [1]; in the data set on L6 (read-out: IC50)) were 89 µM and 200 µM, respectively. In addition, the selectivity ratio in data set [2] was 2.
As to `CC(=O)Oc1ccc2c(c1)C(C)=CC(C)(C)N2Cc1cccc(C)c1`, the IC50 in data set [1] is 0.34 µM; in the data set with L6 (read-out: IC50), 28 µM. Moreover, the selectivity ratio in data set [2] was determined as 82.
The corresponding values for `CC1=CC(C)(C)Nc2ccc(OCCc3ccccc3)cc21` are 3.7 µM, 83 µM and 22.
The matching figures for `CC(=O)Oc1ccc2c(c1)C(C)=CC(C)(C)N2Cc1ccc(C(C)(C)C)cc1`: 0.67 µM, 9 µM and 13.
